What was measured:
[1] = system: microbial contamination of PVB dispersion (bacteria count); assay: PVB dispersion treated with NBDA: microbial contamination by cATP (LuminUltra); assay type: cell-based; conditions: 25° C.
[2] = system: Pseudomonas aeruginosa, ATCC 10145; assay: PT6 screening: microbial activity in pre-formulated acrylic paint (total ATP, aerobic and anaerobic growth on agar plate); assay type: cell-based
Description: The microbial activity in relation to in-can preservation of paint was tested using three methods: ATP measurement, Aerobic growth on agar plate and Anaerobic growth on agar plate in low-air conditions. In the tests concentrations of 1, 2 and 5% NBDA was tested. […] Furthermore, no significant dependence on concentration was shown in these specific tests. Specific about the ATP measurements: test and method developed by Luminultra. A sample is taken from the test paint at a given time and the total amount of ATP is measured. Total ATP amount are measured at Day 7 and 30. After every ATP measurement, streaking of test material on agar plates has been performed. Growth test in aerobic and anaerobic environment are running in 1 and 14 days, respectively. • Test organism: Pseudomonas aeruginosa, ATCC 10145 The screening has been continuously expanded so that there are individual start-ups of three different trials. See further information in the overview table, table VIII. Table VIII overview. Samples in test. Commercial biocide is Vinkocide CMIK®. Acrylic paint is standard EN 152 (modified without PT6 biocide). P. aeruginosa are inoculated in 200 μl concentration to paint sample size of 140 ml in a sterile “paint can-shape” container. […] “Anaerobic growth day 30” were inoculated on day 20 and measured on day 31.

[3] = system: Coniophora puteana. BAM Ebw. 15; assay: EN 113 test against wood destroying basidiomycetes (impregnated Scots pine sapwood); assay type: cell-based
[4] = system: selected typical species of contaminants; assay: Substitution of conventional biocides with NBDA in product recipes: biocidal function (LuminUltra test, 32° C. incubation, Examples 3-6); assay type: cell-based
Source text: Provision and test of the N-sample can be optional.
Ideally, the T, C and N-samples are provided and stored using methods, protocols, raw materials, conditions and the like, which are very close, and ideally identical, mutatis mutandis. In particular, the samples should be subjected to similar or identical microbial contamination during their provision, and or storage if possible.
Samples, such as test-, control- and/or negative control samples are provided according to Example 3. To assess the effect of the biocide(s), microbial contamination is measured, such as according to Example 6, or other conventional methods known in the art.
In short, samples are exposed to microbial contamination (microbial stress test) e.g., by opening a lid and closing it for a defined period of time, or other operations, mimicking a conventional user situation. Alternatively, samples can be inoculated with defined quantities of microorganisms, such as one or more indicator microorganism.
The samples can be divided into different aliquots, and incubated for selected periods at one or more relevant temperatures, such as e.g., one or more of 4° C., room temperature (RT, usually 20° C., 22° C., or 25° C.), 30° C., 32° C., 37° C., 40° C., and/or 60° C.), simulating e.g., appropriate storage, processing and usage conditions.
Microbial contamination of control, test and/or negative control samples can be determined according to Example 6.
ATP, such as intracellular ATP is measured using a commercially available system, such as provided by LumiUltra®, in particular a method using luminase (Aqua Tools, see details below).
In short, a buffering solution and Luminase enzyme are mixed. After daily ATP standard calibration, an aliquot, such as 1 ml of sample is transferred to an 1 ml extraction tube. After dilution in UltraLute resin, the total ATP (content can be established in the luminescence measuring device. 2) 1 ml sample is dissolved in LumiSolve stabilizing agent. […] For further details, see e.g., Aqua Tools (78300 Poissy, France) Quick reference guide QuenchGone21™ Speciality Test Kit QG21S-50/QG21St-100 2G.

[5] = 10% N-BDA in water; cited from earlier work

CCCCN(CCO)CCO [NBDA, N-butyldiethanolamine]
pH ([1]; 0.50% NBDA, after 1 month): 9.73 | pH ([1]; 0.50% NBDA, after 1 week): 9.65 | pH ([1]; 0.50% NBDA, after 3 months): 9.62 | pH ([1]; 0.50% NBDA, after 6 months): 9.58 | pH ([1]; 0.50% NBDA, after 1 day): 9.77 | pH ([1]; 1.00% NBDA, after 1 month): 9.86 | pH ([1]; 1.00% NBDA, after 1 week): 9.89 | pH ([1]; 1.00% NBDA, after 3 months): 9.93 | pH ([1]; 1.00% NBDA, after 6 months): 9.67 | pH ([1]; 1.00% NBDA, after 1 day): 10.2 | anti-microbial potential in paint (ATP, aerobic and anaerobic growth) ([2]; 1, 2 and 5% NBDA in acrylic paint): all three concentrations reveal anti-microbial potentials | effect against aerobic bacteria, in-can preservation of paints ([2]; concentrations of 0.5%, 1%, 2%, and 5%): effective against aerobic bacteria such Gram-negative bacteria such as Pseudomonas aeruginosa | Toxic value, Sol. conc. [3]: >1.43 % w/w | biocidal effect vs normal biocide package ([4]; Styrene-Butadiene-Rubber (SBR)-emulsion, MIT and/or BIT replaced (Example 16)): comparable and better than the normal biocide package | biocidal effect vs benzalkonium chloride ([4]; algae removing compound, 1-5% (Example 9)): comparable or even surpassing benzalkonium chloride in function | biocidal effect vs benzalkonium chloride ([4]; circulating heat-transfer systems, 1-5% (Example 13)): comparable to benzalkonium chloride | biocidal effect vs normal biocide package ([4]; combination products: dispersions, emulsions, suspensions (Example 19)): comparable and better than the normal biocide package | preservation effect vs food preservatives ([4]; food, comparable amounts (Example 40)): shows compatibility and suitable preservation effect(s) | biocidal effect vs normal biocide package ([4]; hand cleanser (Example 37)): comparable or even better than the normal biocide package | biocidal effect vs conventional biocide ([4]; liquid dishwashing compound, MIT and/or BIT replaced with 0.01-1% (Example 7)): comparable to or even surpassing the conventional biocide | biocidal effect vs benzalkonium chloride ([4]; liquid disinfection compound for pipes, 1-5% (Example 11)): comparable to benzalkonium chloride | biocidal effect vs benzalkonium chloride and glutaraldehyde ([4]; liquid disinfection compound for stables, 1-5% (Example 10)): comparable or even surpassing both benzalkonium chloride and glutaraldehyde in function | biocidal effect vs benzalkonium chloride ([4]; liquid disinfection compound, 1-5% (Example 8)): comparable or even surpassing benzalkonium chloride in function | biocidal effect vs normal biocide package ([4]; moisturizing crème / skin- or face-care product (Example 35)): comparable or even better than the normal biocide package | performance vs MIT/BIT system ([4]; precoat composition containing SBR, 0.5% NBDA (Example 24)): same performance as the origin | biocidal effect vs normal biocide package ([4]; soap (Example 38)): comparable or even better than the normal biocide package | biocidal effect vs normal biocide package ([4]; stabilized suspension, MIT and BIT replaced (Example 18)): comparable and better than the normal biocide package | biocidal effect vs chlorine based solutions ([4]; swimmingpool water (Example 36)): comparable or even better than chlorine based traditional solutions | biocidal effect vs benzoate ([4]; toothpaste, benzoate replaced with similar concentration (Example 34)): comparable or even better than benzoate | biocidal effect vs benzalkonium chloride ([4]; waterborne cooling compound, 1-5% (Example 12)): comparable or surpassing benzalkonium chloride | biocidal effect vs benzalkonium chloride ([4]; watersystems for toilets, washing facilities, 1-5% (Example 14)): comparable to benzalkonium chloride | pH [5]: around 11.1

— patent US20260248126A1, “BIOCIDE” (PURGOS APS, priority 2020, published 2026)
